This is an account of results in patent publication US20260193264A1, “BENZOYPARAZINE PYRAZINES AND THEIR USES” (FOGHORN THERAPEUTICS INC., priority 2022, published 2026).

Bounds are passed on as bounds.

Test [1] addresses T1, HiBit-BRG1 fusion protein in stable HeLa cell line expressing HiBit-BRG1 and LgBit (Homo sapiens, UniProt P51532).
T1 construct: expressed in transfected cells
In words: HiBiT-BRG1 cell-based degradation assay (Nano-Glo HiBiT, 24 h). The note with it: HeLa HiBit-BRG1/LgBit cells; for Dmax: top dose 30 μM, read-out: BRG1 HiBit Degradation Maximum (%); for DC50: read-out: BRMG1 HiBit Degradation IC50. In a few lines:
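Stable HeLa line co-expressing HiBiT-BRG1 and LgBiT, compound-treated 24 h; luminescence read after Nano-Glo HiBiT lytic reagent. % degradation normalised between DMSO (high control) and 2 μM reference BRM/BRG1 degrader (low control).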

Test [2] addresses T2, HiBiT-BRM fusion protein in stable HeLa cell line (Homo sapiens, UniProt P51531).
T2 construct: expressed in transfected cells
Description: HiBiT-BRM cell-based degradation assay (Nano-Glo HiBiT Lytic Detection, 24 h). On the set-up: DC50: scale not given here. Particulars: HeLa HiBiT-BRM cells; for DC50: read-out: BRM HiBit Degradation IC50; for BRM HiBit Degradation Maximum (%): top dose 30 μM. Summed up:
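Stable HiBiT-BRM HeLa cells were treated with 10-point 3-fold serial dilutions (30 μM final top dose, duplicate) for 24 h, then lysed with LgBiT-containing detection reagent and luminescence read. Degradation % was normalised to DMSO (high control) and 2 μM reference BRM/BRG1 degrader (low control).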

T2 sequence (P51531 whole entry, the tested form may be a part): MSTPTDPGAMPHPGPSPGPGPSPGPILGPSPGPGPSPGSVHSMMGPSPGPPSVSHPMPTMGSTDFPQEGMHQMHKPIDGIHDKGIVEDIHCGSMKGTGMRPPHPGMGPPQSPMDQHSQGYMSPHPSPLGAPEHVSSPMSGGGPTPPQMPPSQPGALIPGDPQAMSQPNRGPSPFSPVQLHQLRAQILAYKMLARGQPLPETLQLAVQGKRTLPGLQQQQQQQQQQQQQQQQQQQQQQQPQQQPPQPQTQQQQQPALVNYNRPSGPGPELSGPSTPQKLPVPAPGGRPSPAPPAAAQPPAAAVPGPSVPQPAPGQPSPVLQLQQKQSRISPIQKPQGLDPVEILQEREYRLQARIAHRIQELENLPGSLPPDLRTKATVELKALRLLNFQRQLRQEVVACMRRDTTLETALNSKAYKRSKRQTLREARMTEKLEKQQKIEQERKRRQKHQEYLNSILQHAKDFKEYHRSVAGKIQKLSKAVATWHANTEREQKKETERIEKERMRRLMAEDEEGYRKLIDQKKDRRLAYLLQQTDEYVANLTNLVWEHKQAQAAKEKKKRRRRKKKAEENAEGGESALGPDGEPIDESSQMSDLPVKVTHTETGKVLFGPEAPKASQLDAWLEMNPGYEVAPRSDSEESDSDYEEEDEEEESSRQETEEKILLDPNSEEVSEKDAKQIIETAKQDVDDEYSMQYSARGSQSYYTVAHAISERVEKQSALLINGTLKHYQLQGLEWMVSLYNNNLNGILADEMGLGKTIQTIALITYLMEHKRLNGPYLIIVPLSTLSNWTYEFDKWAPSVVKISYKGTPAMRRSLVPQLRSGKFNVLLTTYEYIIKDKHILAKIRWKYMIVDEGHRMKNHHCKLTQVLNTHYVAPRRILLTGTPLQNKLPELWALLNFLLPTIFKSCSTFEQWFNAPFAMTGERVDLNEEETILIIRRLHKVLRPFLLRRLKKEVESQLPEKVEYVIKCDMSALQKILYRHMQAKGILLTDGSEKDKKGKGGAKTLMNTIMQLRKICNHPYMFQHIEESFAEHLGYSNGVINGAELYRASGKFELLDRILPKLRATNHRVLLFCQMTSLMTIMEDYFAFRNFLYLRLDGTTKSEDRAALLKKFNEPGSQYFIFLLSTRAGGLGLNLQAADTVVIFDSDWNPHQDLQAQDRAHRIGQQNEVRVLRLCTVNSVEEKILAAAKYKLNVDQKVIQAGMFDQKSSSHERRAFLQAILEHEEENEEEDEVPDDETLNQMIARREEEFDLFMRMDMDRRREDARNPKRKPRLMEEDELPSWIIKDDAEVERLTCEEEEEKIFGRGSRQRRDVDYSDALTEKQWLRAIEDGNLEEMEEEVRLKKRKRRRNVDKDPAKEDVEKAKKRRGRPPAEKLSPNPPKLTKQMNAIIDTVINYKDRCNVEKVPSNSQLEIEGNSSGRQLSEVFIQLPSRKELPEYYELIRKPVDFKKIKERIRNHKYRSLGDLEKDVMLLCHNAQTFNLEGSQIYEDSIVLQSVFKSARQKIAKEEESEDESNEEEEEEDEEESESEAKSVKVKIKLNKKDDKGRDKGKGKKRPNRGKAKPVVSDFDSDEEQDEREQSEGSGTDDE
T1 sequence (P51532 whole entry, the tested form may be a part): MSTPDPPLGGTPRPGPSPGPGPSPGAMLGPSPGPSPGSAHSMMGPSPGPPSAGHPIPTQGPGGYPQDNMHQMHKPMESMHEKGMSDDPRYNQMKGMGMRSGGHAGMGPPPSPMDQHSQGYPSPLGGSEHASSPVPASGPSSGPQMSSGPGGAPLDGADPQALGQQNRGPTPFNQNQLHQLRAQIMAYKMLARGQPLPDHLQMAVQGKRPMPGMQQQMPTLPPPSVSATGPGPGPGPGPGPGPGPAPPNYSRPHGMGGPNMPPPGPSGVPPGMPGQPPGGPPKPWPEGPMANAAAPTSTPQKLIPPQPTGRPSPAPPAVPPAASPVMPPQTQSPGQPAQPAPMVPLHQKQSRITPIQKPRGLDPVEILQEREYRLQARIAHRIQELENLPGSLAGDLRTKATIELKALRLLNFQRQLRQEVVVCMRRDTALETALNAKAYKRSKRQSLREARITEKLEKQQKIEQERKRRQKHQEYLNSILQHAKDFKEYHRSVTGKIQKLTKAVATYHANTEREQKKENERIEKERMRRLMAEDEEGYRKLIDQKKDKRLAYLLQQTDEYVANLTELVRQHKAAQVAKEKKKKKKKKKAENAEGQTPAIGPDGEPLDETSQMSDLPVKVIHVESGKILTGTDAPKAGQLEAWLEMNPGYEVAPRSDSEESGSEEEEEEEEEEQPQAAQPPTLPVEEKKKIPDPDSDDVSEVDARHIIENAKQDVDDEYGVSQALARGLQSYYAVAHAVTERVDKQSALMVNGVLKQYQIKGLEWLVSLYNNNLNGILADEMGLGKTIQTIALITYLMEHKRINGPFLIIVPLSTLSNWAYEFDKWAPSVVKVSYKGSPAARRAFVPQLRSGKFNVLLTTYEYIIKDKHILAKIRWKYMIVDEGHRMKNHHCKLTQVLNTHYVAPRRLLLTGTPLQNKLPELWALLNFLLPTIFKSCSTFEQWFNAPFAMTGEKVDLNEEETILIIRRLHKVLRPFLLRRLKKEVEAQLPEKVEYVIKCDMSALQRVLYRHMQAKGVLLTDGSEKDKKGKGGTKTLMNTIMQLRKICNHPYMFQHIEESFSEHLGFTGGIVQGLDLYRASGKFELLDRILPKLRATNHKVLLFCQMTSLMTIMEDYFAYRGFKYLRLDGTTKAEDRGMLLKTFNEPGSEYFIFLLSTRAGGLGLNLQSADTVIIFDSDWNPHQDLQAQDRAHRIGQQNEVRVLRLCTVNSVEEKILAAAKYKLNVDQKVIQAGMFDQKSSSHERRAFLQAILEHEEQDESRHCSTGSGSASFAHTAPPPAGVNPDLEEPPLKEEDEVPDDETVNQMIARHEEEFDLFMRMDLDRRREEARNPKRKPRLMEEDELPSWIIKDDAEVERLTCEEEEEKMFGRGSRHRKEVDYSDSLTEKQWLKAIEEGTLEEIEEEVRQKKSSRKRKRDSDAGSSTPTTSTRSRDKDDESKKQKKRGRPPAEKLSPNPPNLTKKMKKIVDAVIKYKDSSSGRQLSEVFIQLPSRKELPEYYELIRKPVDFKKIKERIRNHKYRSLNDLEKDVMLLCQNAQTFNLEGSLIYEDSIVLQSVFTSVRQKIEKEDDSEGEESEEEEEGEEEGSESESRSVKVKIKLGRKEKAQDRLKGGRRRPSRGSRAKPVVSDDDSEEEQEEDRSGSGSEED

As to `Cc1ncsc1-c1ccc([C@H](C)NC(=O)[C@@H]2C[C@@H](O)CN2C(=O)[C@@H](c2cc(N3CC[C@@H](c4ccc5nnc(-c6ccccc6O)cc5c4)C3)no2)C(C)C)cc1` [Compound 73, (2S,4R)-4-hydroxy-1-((R)-2-(3-((S)-3-(3-(2-hydroxyphenyl)cinnolin-6-yl)pyrrolidin-1-yl)isoxazol-5-yl)-3-methylbutanoyl)-N-((S)-1-(4-(4-methylthiazol-5-yl)phenyl)ethyl)pyrrolidine-2-carboxamide], the Dmax in test [1] was less than 50%. For the same compound, in test [2], the DC50 is less than 10 nM and the “BRM HiBit Degradation Maximum (%)” value is reported as “A (“A” indicates maximum degradation ≥75%)”.
With `Cc1ncsc1-c1ccc([C@H](C)NC(=O)[C@@H]2C[C@@H](O)CN2C(=O)C(C(C)C)n2cc(N3C4CCC3CN(c3ccc5nnc(-c6ccccc6O)cc5c3)C4)nn2)cc1` (stereo partly drawn) [Compound 285], in test [1], the DC50 is greater than 10 nM and the Dmax was greater than 75%. Besides, in test [2], the DC50 is less than 10 nM and the “BRM HiBit Degradation Maximum (%)” value is recorded as “A (“A” indicates maximum degradation ≥75%)”.
In the same order, the values of `Cc1ncsc1-c1ccc([C@H](C)NC(=O)[C@@H]2C[C@@H](O)CN2C(=O)[C@@H](c2cc(N3CC4(C3)CN(c3cc5nnc(-c6ccccc6O)cc5cc3Cl)C4)no2)C(C)C)cc1` [Compound 157, (2S,4R)-1-((R)-2-(3-(6-(6-chloro-3-(2-hydroxyphenyl)cinnolin-7-yl)-2,6-diazaspiro[3.3]heptan-2-yl)isoxazol-5-yl)-3-methylbutanoyl)-4-hydroxy-N-((S)-1-(4-(4-methylthiazol-5-yl)phenyl)ethyl)pyrrolidine-2-carboxamide] are less than 10 nM, greater than 50%, less than 10 nM and “A (“A” indicates maximum degradation ≥75%)”.
`Cc1ncsc1-c1ccc([C@H](C)NC(=O)[C@@H]2C[C@@H](O)CN2C(=O)[C@@H](c2cc(N3CC4(CN(c5cc(C)c6cc(-c7ccccc7O)nnc6c5)C4)C3)no2)C(C)C)cc1` [Compound 145, (2S,4R)-4-hydroxy-1-((R)-2-(3-(6-(3-(2-hydroxyphenyl)-5-methylcinnolin-7-yl)-2,6-diazaspiro[3.3]heptan-2-yl)isoxazol-5-yl)-3-methylbutanoyl)-N-((S)-1-(4-(4-methylthiazol-5-yl)phenyl)ethyl)pyrrolidine-2-carboxamide]: the Dmax in test [1] was less than 50%. In addition, in test [2], the DC50 is less than 10 nM and the “BRM HiBit Degradation Maximum (%)” value is “A (“A” indicates maximum degradation ≥75%)”.
In the same order, the values of `Cc1ncsc1-c1ccc([C@H](C)NC(=O)[C@@H]2C[C@@H](O)CN2C(=O)[C@H](C(C)C)n2cc(-c3cc4cc(-c5ccccc5O)nnc4cc3C#N)nn2)cc1` [Compound 170, (2S,4R)-1-[(2S)-2-{4-[7-cyano-3-(2-hydroxyphenyl)cinnolin-6-yl]-1,2,3-triazol-1-yl}-3-methylbutanoyl]-4-hydroxy-N-[(1S)-1-[4-(4-methyl-1,3-thiazol-5-yl)phenyl]ethyl]pyrrolidine-2-carboxamide] are less than 50%, greater than 10 nM and “B (“B” indicates maximum degradation ≥50%)”.
`Cc1ncsc1-c1ccc([C@H](C)NC(=O)[C@@H]2C[C@@H](O)CN2C(=O)C(C(C)C)n2cc(N3CCCC4(CCN(c5ccc6nnc(-c7ccccc7O)cc6c5)CC4)C3)nn2)cc1` (stereo partly drawn) [Compound 275]: in test [1], the DC50 is greater than 10 nM and the Dmax is greater than 75%. Further, in test [2], the DC50 is less than 10 nM and the “BRM HiBit Degradation Maximum (%)” value is recorded as “A (“A” indicates maximum degradation ≥75%)”.
In the same order, the values of `Cc1ncsc1-c1ccc([C@H](C)NC(=O)[C@@H]2C[C@@H](O)CN2C(=O)[C@@H](c2cc(N3CC4(C3)CN(c3cc5nnc(-c6ccccc6O)cc5cc3C3CC3)C4)no2)C(C)C)cc1` [Compound 126, (2S,4R)-1-((R)-2-(3-(6-(6-cyclopropyl-3-(2-hydroxyphenyl)cinnolin-7-yl)-2,6-diazaspiro[3.3]heptan-2-yl)isoxazol-5-yl)-3-methylbutanoyl)-4-hydroxy-N-((S)-1-(4-(4-methylthiazol-5-yl)phenyl)ethyl)pyrrolidine-2-carboxamide] are less than 10 nM, greater than 75%, less than 10 nM and “A (“A” indicates maximum degradation ≥75%)”.
Consider `Cc1ncsc1-c1ccc([C@H](C)NC(=O)[C@@H]2C[C@@H](O)CN2C(=O)[C@@H](c2cc(N3CCC4(CC3)CC(c3ccc5cc(-c6cc(F)cc(F)c6O)nnc5c3)C4)no2)C(C)C)cc1` [Compound 82, (2S,4R)-1-((R)-2-(3-(2-(3-(3,5-difluoro-2-hydroxyphenyl)cinnolin-7-yl)-7-azaspiro[3.5]nonan-7-yl)isoxazol-5-yl)-3-methylbutanoyl)-4-hydroxy-N-((S)-1-(4-(4-methylthiazol-5-yl)phenyl)ethyl)pyrrolidine-2-carboxamide], for which the Dmax in test [1] is less than 50%. Besides, in test [2], the DC50 was less than 10 nM and the “BRM HiBit Degradation Maximum (%)” value is on record as “A (“A” indicates maximum degradation ≥75%)”.
Consider `Cc1ncsc1-c1ccc([C@H](C)NC(=O)[C@@H]2C[C@@H](O)CN2C(=O)[C@@H](c2cc(N3CCC(CN4CC(c5ccc6nnc(-c7ccccc7O)cc6c5)C4)CC3)no2)C(C)C)cc1` [Compound 2, (2S,4R)-4-hydroxy-1-((R)-2-(3-(4-((3-(3-(2-hydroxyphenyl)cinnolin-6-yl)azetidin-1-yl)methyl)piperidin-1-yl)isoxazol-5-yl)-3-methylbutanoyl)-N-((S)-1-(4-(4-methylthiazol-5-yl)phenyl)ethyl)pyrrolidine-2-carboxamide], for which the Dmax in test [1] was less than 50%. For the same compound, in test [2], the DC50 is greater than 10 nM and the “BRM HiBit Degradation Maximum (%)” value is “A (“A” indicates maximum degradation ≥75%)”.
Turning to `Cc1ncsc1-c1ccc([C@H](C)NC(=O)[C@@H]2C[C@@H](O)CN2C(=O)[C@@H](c2cc(-c3cnc(N4CC(c5cc(Cl)c6cc(-c7ccccc7O)nnc6c5)C4)nc3)no2)C(C)C)cc1` [Compound 36], the Dmax in test [1] was less than 50%. Besides, in test [2], the DC50 is greater than 10 nM and the “BRM HiBit Degradation Maximum (%)” value is “B (“B” indicates maximum degradation ≥50%)”.
Consider `Cc1ncsc1-c1ccc([C@H](C)NC(=O)[C@@H]2C[C@@H](O)CN2C(=O)[C@@H](c2cc(N3CCC(CN4CC(c5ccc6cc(-c7ccccc7O)nnc6c5)C4)CC3)no2)C(C)C)cc1` [Compound 9, (2S,4R)-4-hydroxy-1-((R)-2-(3-(4-((3-(3-(2-hydroxyphenyl)cinnolin-7-yl)azetidin-1-yl)methyl)piperidin-1-yl)isoxazol-5-yl)-3-methylbutanoyl)-N-((S)-1-(4-(4-methylthiazol-5-yl)phenyl)ethyl)pyrrolidine-2-carboxamide], for which the Dmax in test [1] was less than 50%. For the same compound, in test [2], the DC50 was greater than 10 nM and the “BRM HiBit Degradation Maximum (%)” value was “A (“A” indicates maximum degradation ≥75%)”.
In the same order, the values of `CC(C)[C@@H](C(=O)N1C[C@H](O)C[C@H]1C(=O)N[C@@H](C)c1ccc(F)cc1)c1cc(N2CC3(C2)CN(c2cc4nnc(-c5ccccc5O)cc4cc2C(F)F)C3)no1` [Compound 236, (2S,4R)-1-((R)-2-(3-(6-(6-(difluoromethyl)-3-(2-hydroxyphenyl)cinnolin-7-yl)-2,6-diazaspiro[3.3]heptan-2-yl)isoxazol-5-yl)-3-methylbutanoyl)-N-((S)-1-(4-fluorophenyl)ethyl)-4-hydroxypyrrolidine-2-carboxamide] are less than 50%, greater than 10 nM and “A (“A” indicates maximum degradation ≥75%)”.
Take `Cc1ncsc1-c1ccc([C@H](C)NC(=O)[C@@H]2C[C@@H](O)CN2C(=O)[C@@H](c2cc(N3CCC[C@@H](c4ccc5cc(-c6ccccc6O)nnc5c4)C3)no2)C(C)C)cc1` [Compound 91, (2S,4R)-4-hydroxy-1-((R)-2-(3-((S)-3-(3-(2-hydroxyphenyl)cinnolin-7-yl)piperidin-1-yl)isoxazol-5-yl)-3-methylbutanoyl)-N-((S)-1-(4-(4-methylthiazol-5-yl)phenyl)ethyl)pyrrolidine-2-carboxamide]: in test [1], the DC50 was less than 10 nM and the Dmax is greater than 75%. Further, in test [2], the DC50 was less than 10 nM and the “BRM HiBit Degradation Maximum (%)” value is “A (“A” indicates maximum degradation ≥75%)”.
Consider `CC(C)[C@@H](C(=O)N1C[C@H](O)C[C@H]1C(=O)N[C@@H](C)c1ccc(Br)cc1)c1cc(N2CC3(CN(c4ccc5cc(-c6ccccc6O)nnc5c4)C3)C2)no1` [Compound 109, (2S,4R)-N-((S)-1-(4-bromophenyl)ethyl)-4-hydroxy-1-((R)-2-(3-(6-(3-(2-hydroxyphenyl)cinnolin-7-yl)-2,6-diazaspiro[3.3]heptan-2-yl)isoxazol-5-yl)-3-methylbutanoyl)pyrrolidine-2-carboxamide], for which, in test [1], the Dmax was less than 50%. For the same compound, in test [2], the DC50 was less than 10 nM and the “BRM HiBit Degradation Maximum (%)” value is given as “A (“A” indicates maximum degradation ≥75%)”.
Turning to `Cc1ncsc1-c1ccc([C@H](C)NC(=O)[C@@H]2C[C@@H](O)CN2C(=O)[C@@H](c2cc(-c3cnc(N4CCN(c5ccc6nnc(-c7ccccc7O)cc6c5)CC4)nc3)no2)C(C)C)cc1` [Compound 13, (2S,4R)-4-hydroxy-1-((R)-2-(3-(2-(4-(3-(2-hydroxyphenyl)cinnolin-6-yl)piperazin-1-yl)pyrimidin-5-yl)isoxazol-5-yl)-3-methylbutanoyl)-N—((S)-1-(4-(4-methylthiazol-5-yl)phenyl)ethyl)pyrrolidine-2-carboxamide], in test [1], the DC50 was less than 10 nM and the Dmax was greater than 75%. For the same compound, in test [2], the DC50 is less than 10 nM and the “BRM HiBit Degradation Maximum (%)” value is “A (“A” indicates maximum degradation ≥75%)”.
